Experimental data published in patent US4161523A, “Rosamicin esters, acid addition salts and methods for production thereof” (priority 1974, dated 1979).
Converted amounts (≈) assume the structure as drawn. Structures can show the parent of a compound that is named as a salt. Where two headings read alike, the source gives them in different places.

Key:
[1] = test system: Bacillus subtilis ATCC 6633; test: Cylinder cup assay (bioassay potency); type: cell-based; conditions: for potency (bioassay): reference standard assigned 1000 mcg/mg
Protocol: The assay technique employed is a cylinder cup assay using Bacillus subtilis ATCC 6633 as the test organism.
The physical conditions of the assay consist of a base layer of 21 ml. and a seed layer of 4 ml. of Antibiotic Medium No. 5. A standard curve is plotted using the following concentrations of antibiotic ([…]) in 0.1 M phosphate buffer (pH 8.0): 0.64, 0.8, 1.0, 1.25, and 1.56. […] The test procedure and the test medium is substantially that described for erythromycin in Assay Methods of Antibiotics, D. C. Grove and W. A. Randall, Medical Encyclopedia Inc., New York, New York (1955) pp. 96-103.

[2] = test system: Staphylococcus aureus; test: In vitro activity, tube dilution (MIC), Staphylococcus aureus; type: cell-based; conditions: 6 strains; yeast beef broth pH 7.4, 18 h, 37° C.; read-out: MIC (Minimal Inhibitory Concentration), range
Protocol: (§1) The in vitro activity of Antibiotic 67-694 is ascertained by conventional tube dilution procedures using yeast beef broth medium at pH 7.4. The tubes are incubated for 18 hours at 37° C. prior to being observed.

[3] = test system: pepsin; test: Stability to pepsin; type: in vitro ADME; conditions: pepsin 1 mg./ml. pH 2.2, 37° C., 24 hours; disc assay E. coli and S. aureus
Protocol: (§2) Antiobiotic 67-694 has been tested for stability against trypsin, chymotrypsin, pepsin, and α-amylase. Solutions of the enzymes were prepared at 1 mg./ml. in McIlvaines buffers at the optimal pH for the enzyme (i.e. trypsin and chymotrypsin pH 8; pepsin, pH 2.2; and α-amylase pH 4). Two hundred (200) mcg. of antibiotic was dissolved in 0.5 ml. of water, mixed with 0.5 ml. of enzyme solution and incubated at 37° C. for 24 hours. The solutions were disc assayed against Escherichia coli and Staphylococcus aureus after 0, 1, 2.5 and 24 hours incubation.

[4] = test system: trypsin; test: Stability to trypsin; type: in vitro ADME; conditions: trypsin 1 mg./ml. pH 8, 37° C., 24 hours; disc assay E. coli and S. aureus
Protocol: as §2

[5] = test system: Salmonella schottmuelleri; test: In vitro activity, tube dilution (MIC), Salmonella schottmuelleri; type: cell-based; conditions: 3 strains; yeast beef broth pH 7.4, 18 h, 37° C.; read-out: MIC (Minimal Inhibitory Concentration), range
Protocol: as §1

[6] = test system: Aerobacter aerogenes; test: In vitro activity, tube dilution (MIC), Aerobacter aerogenes; type: cell-based; conditions: 3 strains; yeast beef broth pH 7.4, 18 h, 37° C.; read-out: MIC (Minimal Inhibitory Concentration), range
Protocol: as §1

[7] = test system: Enterococcus sp.; test: In vitro activity, tube dilution (MIC), Enterococcus sp.; type: cell-based; conditions: 2 strains; yeast beef broth pH 7.4, 18 h, 37° C.; read-out: MIC (Minimal Inhibitory Concentration), range
Protocol: as §1

[8] = test system: chymotrypsin; test: Stability to chymotrypsin; type: in vitro ADME; conditions: chymotrypsin 1 mg./ml. pH 8, 37° C., 24 hours; disc assay E. coli and S. aureus
Protocol: as §2

[9] = Solubility; type: physicochemical; conditions: U.S. Pharmacopea, 17th revision
From the text: ^a) According to U.S. Pharmacopea, 17th revision (1965) pg. 8

[10] = Acute toxicity in mice; parameters: species or system male CF-1 (Carworth Farms) mice; conditions: mouse, in vivo
Protocol: (§3) The protective activity and the acute toxicity of Antibiotic 67-694 is tested in male CF-1 (Carworth Farms) mice weighing approximately 20 gms. each. For protection, the antibiotic is given as a suspension or a solution in an aqueous vehicle containing 0.5% carboxy methyl cellulose (CMC) in two doses; one shortly before and one 4 hours after intraperitoneal infection with the bacteria. Infected and non-treated mice (controls) generally die within 18 hours. Survival rate in the treated group is determined 48 hours after infection.
(§4) The acute toxicity of Antibiotic 67-694 is measured in the standard manner by administering the antibiotic by a variety of routes and determining the LD50 by standard procedures. The results of in vivo tests using a representative gram-positive and a representative gram negative organism are set forth in Tables X and Xi below: […]

[11] = test system: Streptococcus pyogenes C; test: Protective activity in mice, Streptococcus pyogenes C infection; type: in vivo, male CF-1 (Carworth Farms) mice; conditions: two doses, survival 48 hours after infection, read-out: PD50
Protocol: as §3, §4

[12] = test system: Staphylococcus aureus gray; test: Protective activity in mice, Staphylococcus aureus gray infection; type: in vivo, male CF-1 (Carworth Farms) mice; conditions: two doses, survival 48 hours after infection, read-out: PD50
Protocol: as §3, §4

[13] = test system: α-amylase; test: Stability to α-amylase; type: in vitro ADME; conditions: α-amylase 1 mg./ml. pH 4, 37° C., 24 hours; disc assay E. coli and S. aureus
Protocol: as §2

[14] = test system: Klebsiella pneumoniae; test: In vitro activity, tube dilution (MIC), Klebsiella pneumoniae; type: cell-based; conditions: 4 strains; yeast beef broth pH 7.4, 18 h, 37° C.; read-out: MIC (Minimal Inhibitory Concentration), range
Protocol: as §1

[15] = test system: Pseudomonas aeruginosa; test: In vitro activity, tube dilution (MIC), Pseudomonas aeruginosa; type: cell-based; conditions: 4 strains; yeast beef broth pH 7.4, 18 h, 37° C.; read-out: MIC (Minimal Inhibitory Concentration), range
Protocol: as §1

[16] = in 66% dimethylformamide; data from U.S. Pat. No. 3,767,793; cited from earlier work
[17] = test system: Streptococcus pyogenes; test: In vitro activity, tube dilution (MIC), Streptococcus pyogenes; type: cell-based; conditions: 7 strains; yeast beef broth pH 7.4, 18 h, 37° C.; read-out: MIC (Minimal Inhibitory Concentration), range
Protocol: as §1

[18] = pKa; type: physicochemical
[19] = test system: Diplococcus Pneumoniae; test: In vitro activity, tube dilution (MIC), Diplococcus Pneumoniae; type: cell-based; conditions: 3 strains; yeast beef broth pH 7.4, 18 h, 37° C.; read-out: MIC (Minimal Inhibitory Concentration), range
Protocol: as §1

[20] = test system: gram-positive bacteria; test: Antibacterial activity, general statements; type: cell-based
Protocol: as §1

[21] = U.S. Pat. No. 3,767,793, cited from earlier work
[22] = test system: Escherichia coli; test: In vitro activity, tube dilution (MIC), Escherichia coli; type: cell-based; conditions: 3 strains; yeast beef broth pH 7.4, 18 h, 37° C.; read-out: MIC (Minimal Inhibitory Concentration), range
Protocol: as §1

[23] = test system: Proteus sp.; test: In vitro activity, tube dilution (MIC), Proteus sp.; type: cell-based; conditions: 3 strains; yeast beef broth pH 7.4, 18 h, 37° C.; read-out: MIC (Minimal Inhibitory Concentration), range
Protocol: as §1

With CCC(=O)OC1C(OC2C(CC=O)CC(C)C(=O)C=CC3(C)OC3C(C)C(CC)OC(=O)CC(O)C2C)OC(C)CC1N(C)C (centres unmarked) [Antibiotic 67-694 2'-Propionate Phosphate Salt] the “potency (bioassay)” value ([1]; Phosphate Salt) was 915 µg/mg.
With CCCCCCCCCCCCCCCCCC(=O)OC1C(OC2C(CC=O)CC(C)C(=O)C=CC3(C)OC3C(C)C(CC)OC(=O)CC(O)C2C)OC(C)CC1N(C)C (centres unmarked) [Antibiotic 67-694 2'-stearate, Antibiotic 67-694 2'-Stearate] the “potency (bioassay)” value [1] was 585 µg/mg.
In the case of CCC1OC(=O)CC(O)C(C)C(OC2OC(C)CC(N(C)C)C2O)C(CC=O)CC(C)C(=O)C=CC2(C)OC2C1C (centres unmarked) [Antibiotic 67-694], the MIC [2] is reported as 0.03 to 3 µg/mL (≈ 0.0516 to 5.16 µM), the “Stability to enzymes: loss in activity” value [3] is reported as “no substantial loss in activity” and the “Stability to enzymes: loss in activity” value [4] is reported as “no substantial loss in activity”. For the same molecule, the MIC [5] was 0.3 to 3 µg/mL (≈ 0.516 to 5.16 µM), the MIC [6] was 0.75 to 7.5 µg/mL (≈ 1.29 to 12.9 µM) and the MIC [7] was 0.03 µg/mL (≈ 0.0516 µM). For the same molecule, the “Stability to enzymes: loss in activity” value [8] was “no substantial loss in activity”, the Solubility ([9]; Acetone) was “Very soluble” and the Solubility ([9]; Benzene) was “Very soluble”. For the same molecule, the Solubility ([9]; Chloroform) was “Very soluble”, the Solubility ([9]; Ether) was “Sparingly soluble” and the Solubility ([9]; Methanol) was “Very soluble”. The Solubility ([9]; Water) was “Slightly soluble”, the LD50 ([10]; ip, Intraperitoneal) was 350 mg/kg and the LD50 ([10]; sc, Subcutaneous) was 625 mg/kg. The LD50 ([10]; Intravenous) was 155 mg/kg, the ED50 ([11]; Oral) was 200 mg/kg and the ED50 ([11]; sc, Subcutaneous) was 50 mg/kg. The ED50 ([12]; oral) was 200 mg/kg, the ED50 ([12]; sc, Subcutaneous) was 50 mg/kg and the “Stability to enzymes: loss in activity” value [13] was “no substantial loss in activity”. For the same molecule, the MIC [14] was 0.3 to 3 µg/mL (≈ 0.516 to 5.16 µM), the MIC [15] was 0.75 to 3 µg/mL (≈ 1.29 to 5.16 µM) and the pKa [16] was 8.4. It also gave an MIC [17] of 0.75 to 3 µg/mL (≈ 1.29 to 5.16 µM), a pKa [18] of 8.7 and an MIC [19] of 0.03 to 0.08 µg/mL (≈ 0.0516 to 0.138 µM). The “potency (assaying units per mg)” value ([1]; purified by silicic acid column, Example 4) was “about 1,000 units per mg”, the “antibacterial activity / spectrum (in words)” value [20] was “broad antibacterial spectrum in vitro with a greater effect upon gram-positive bacteria” and the Solubilities ([21]; benzene, chloroform, ethyl acetate, dimethylformamide, ethanol or an aqueous acid solution) was “Soluble”. The Solubilities ([21]; petroleum ether, n-hexane or a neutral water) was “Insoluble”, the MIC [22] was 3 µg/mL (≈ 5.16 µM) and the MIC [23] was 0.3 µg/mL (≈ 0.516 µM).
